How the values were obtained:
Type in all cases: physicochemical
[1] = Crystallization time of ACM in layers with different excipients; settings: 50% ACM layers
[2] = DSC glass transition of rapid quench 50% ACM layers; settings: 50% ACM loading, DSC 10° C./min
Experimental: All analyses were carried out in triplicate.
Most thin layer drug products are initially amorphous, but tend to crystallize slowly over time. Time and material consuming storage experiments are usually required to study the stability of amorphous drug candidate. It is necessary to predict the amorphous stability of drug candidates early in the formulation process. However, the glass transition temperature of the polymer is masked by the melting peak of the drug and little extra information can be extracted. The DSC heating curve for a sample quench cooled after being melted gave information on the glass transition temperature, the crystallisation exotherm, and the melting endotherm (FIG. 21). Samples were prepared by melting in closed DSC pans from R.T. to 200° C. at a rate of 10° C./min and subsequently cooled to −10° C. at a cooling rate of 10° C./min. The pure ACM phases were well studied by DSC; the amorphous form a glass transition peak at 24.8° C., a crystallization peak between 65° C. to 100° C., a solid state transition at about 130° C. from Form III to Form II, and a melting peak for Form II at about 158° C.

[3] = Solvent inspection of dried layers after storage in desiccator overnight
Experimental: (§1) Water content was measured using a […] volumetric KF titration from Mettler Toledo. […] […] drug purity was verified by Agilent […] series high performance liquid chromatography (HPLC). All analyses were carried out in triplicate. […] In order to confirm the chemical stability of the drug, HPLC was used. Different experiments were carried out to examine the level of degradation of aliskiren as the drying temperature and time increased. […] The highest allowable drying temperature was set to be 70° C. At 70° C., 60 min was the minimum drying time required to have layers that peel easily and that contain solvent content under regulatory requirements (ethanol<0.5% and water %<0.5%). The layers were stored in a vacuum desiccator overnight to remove excess solvent, and then sealed under vacuum for storage and further characterization.

[4] = Stability test of […]/HPMC thin layer tablets stored at 40° C., 75% R.H. (HPLC); settings: Pure ALISKIREN (starting drug substance)
Experimental: Tablet forming was done by Instron and a force of up to 25 kN (9 mm diameter die) was recorded. The as-made thin layer tablets are then coated by Opadry AMB for 60 min, with the final coating taking up 10% of the tablet weight. Every 30 tablets were stored in a plastic vial of about 40 ml in volume together with a small standard drying bag. Vials were sealed using aluminum foil and placed at 40° C. for 75% R.H. for 1 month or 3 months. Samples of Aliskiren/HPMC thin layer tablets were tested by HPLC after peeling off the blue coating materials to avoid cross contamination. […] Water content was measured using a […] volumetric KF titration from Mettler Toledo. […] drug purity was verified by Agilent […] series high performance liquid chromatography (HPLC). All analyses were carried out in triplicate. […] The as-obtained tablets were then coated by Opadry AMB and placed at 40° C. for 75% R.H. for 1-month or 3-months stability tests.

[5] = HPLC purity of aliskiren in Aliskiren/HPMC layers under different drying conditions
Experimental: as §1

Q: With `CC(=O)Nc1ccc(O)cc1` [ACM only, Acetaminophen] as the compound, how does the Crystallization time [1] read?
A: <6 h

Q: What about the Tg [2] of the same compound?
A: 24.8 °C

Q: Which results are given for `COCCCOc1cc(C[C@@H](C[C@H](N)[C@@H](O)C[C@H](C(=O)NCC(C)(C)C(N)=O)C(C)C)C(C)C)ccc1OC` [Aliskiren]?
A: Solvent inspection (<0.5%) after stored in dessicator overnight ([3]; drying 30° C., 180 min): Yes; Solvent inspection (<0.5%) after stored in dessicator overnight ([3]; drying 50° C., 90 min): Yes; Solvent inspection (<0.5%) after stored in dessicator overnight ([3]; drying 50° C., 180 min): Yes; Solvent inspection (<0.5%) after stored in dessicator overnight ([3]; drying 70° C., 60 min): Yes; Solvent inspection (<0.5%) after stored in dessicator overnight ([3]; drying 70° C., 90 min): Yes; Purity of ALISKIREN [4]: 99.6%; ALISKIREN purity % ([5]; drying 30° C., 180 min): 99.6%; One single impurity >0.2% ([5]; drying 30° C., 180 min): No; ALISKIREN purity % ([5]; drying 50° C., 90 min): 99.5%; One single impurity >0.2% ([5]; drying 50° C., 90 min): No; ALISKIREN purity % ([5]; drying 50° C., 180 min): 99.5%; One single impurity >0.2% ([5]; drying 50° C., 180 min): No; ALISKIREN purity % ([5]; drying 70° C., 30 min): 99.5%; One single impurity >0.2% ([5]; drying 70° C., 30 min): No; ALISKIREN purity % ([5]; drying 70° C., 60 min): 99.3%; One single impurity >0.2% ([5]; drying 70° C., 60 min): No; ALISKIREN purity % ([5]; drying 70° C., 90 min): 99.2%; One single impurity >0.2% ([5]; drying 70° C., 90 min): No; ALISKIREN purity % ([5]; drying 90° C., 30 min): 98.8%; One single impurity >0.2% ([5]; drying 90° C., 30 min): Yes

Reference: patent publication US9205089B2, “Layer processing for pharmaceuticals” (Massachusetts Institute of Technology, priority 2011, dated 2015)
